In patent US9534059B2, “TIKI inhibitors” (Children's Medical Center Corporation, priority 2012, dated 2017):

Columns and labels:
Assay type in all cases: in vivo
Tiki1 [1] = molecular target: T1, Tiki1 (Xenopus tropicalis, UniProt F6PTN1); experiment: Whole mount in situ hybridization of organizer gene expression in MO-injected embryos (FIGS. 3D and 3F)
T1 construct: Thus the endogenous Tiki1 in the Organizer acts in both Wnt-producing and Wnt-responding cells; endogenous in cells; host or cells: Xenopus embryos (dorsal blastomeres / organizer)
T1 sequence (F6PTN1 24-480): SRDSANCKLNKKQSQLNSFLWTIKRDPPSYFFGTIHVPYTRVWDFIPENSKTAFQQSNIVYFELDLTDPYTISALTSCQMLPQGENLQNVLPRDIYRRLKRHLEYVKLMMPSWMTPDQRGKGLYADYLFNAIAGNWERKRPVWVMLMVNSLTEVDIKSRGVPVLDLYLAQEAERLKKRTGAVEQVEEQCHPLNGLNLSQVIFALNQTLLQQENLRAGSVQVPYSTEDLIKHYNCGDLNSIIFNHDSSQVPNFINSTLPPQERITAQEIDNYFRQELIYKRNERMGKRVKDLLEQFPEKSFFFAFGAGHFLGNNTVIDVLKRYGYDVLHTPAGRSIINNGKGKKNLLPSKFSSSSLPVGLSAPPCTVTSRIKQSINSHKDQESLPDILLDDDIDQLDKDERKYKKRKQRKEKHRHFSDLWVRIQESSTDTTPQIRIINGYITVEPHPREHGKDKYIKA
Description: (D) Tiki1 is required for the head organizer. Mid-gastrula embryos (stage 10.5-11) were examined by whole mount in situ hybridization.
(F) Tiki1MO reduces Goosecoid expression in prechordal plate at stage 13. 20 ng of control MO, Tiki1MO or Tiki1MO plus 50 pg of HA*Tiki1 mRNA were injected into two dorsal blastomeres at the 8-cell stage. Injected embryos were subjected to whole mount in situ hybridization with the Gsc probe at stage 13 (dorsal view with anterior up).
(§1) Procedures for embryo manipulation, reverse transcription PCR and in situ hybridization were performed as previously described (Tamai et al., 2000). The arrayed Xenopus tropicalis full length cDNAs (Voigt et al., 2005) were used for the screening as performed previously (Kato et al., 2002). cDNA pools (in the CS107 vector) that contain 96 independent clones were transcribed in vitro using SP6 polymerase, and the resulting mRNA pools were injected into the dorsal side of the embryo at 4-cell stage at the dose of 10 ng RNA/embryo. Injected embryos were scored at stage 30-31 for enlarged or diminished anterior development. The positive pools were divided into smaller pools and the same process was repeated till a single cDNA was identified.
(§2) The following morpholino oligonucleotides were used: Tiki1 MO: 5′-[…]-3′ (SEQ ID NO:33); standard control MO: 5′-[…]-3′ (SEQ ID NO:34) (Gene Tools, LLC). RT-PCR primers for XTiki1: Forward, 5′-[…]-3′(SEQ ID NO:35), Reverse, 5′-[…]-3′(SEQ ID NO:36); human TIKI1: Forward, 5′-[…]-3′(SEQ ID NO:37), Reverse, 5′-[…]-3′(SEQ ID NO:38); human TIKI2: Forward, 5′-[…]-3′(SEQ ID NO:39), Reverse, 5′-[…]-3′(SEQ ID NO:40).
(§3) Further, injection of Tiki1MO in two dorsal blastomeres of 8-cell stage embryos suppressed the expression of head organizer genes including Goosecoid (Gsc), Lim1, Otx2, and Dkk1 in gastrula stage embryos (stages 10.5-11) (FIG. 3D and Table 1). […] HA*Tiki1 mRNA injection rescued the effect of Tiki1MO on all head organizer genes examined (FIG. 3D and Table 1). […] Consistently, Tiki1 inhibited Xwnt8 posterizing effect when both were co-expressed dorsally via injected plasmids, which zygotically express Tiki1 and Xwnt8, respectively, after mid-blastula transition (FIG. 3H).

Tiki1 [2] = molecular target: T1, Tiki1; experiment: Time course of Goosecoid expression in MO-injected embryos, whole mount in situ hybridization (FIG. 3G)
Description: (G) Tiki1MO reduced SO-specific Goosecoid expression at stage 11 but not prior to stage 10.5. Time course of Gsc expression was examined between stage 8.5 and 11. 20 ng of Tiki1MO or control MO was injected into two dorsal blastomeres at the 8-cell stage. After Injection embryos were cultured at 22° C. till indicated stages, and were subjected to whole mount in situ hybridization (vegetal view with dorsal up).
as §1, §2, §3

Tiki1 [3] = molecular target: T1, Tiki1; experiment: Tiki1MO loss-of-function phenotype scoring in embryos; conditions: 20 ng into two dorsal blastomeres of 8-cell stage embryos
Description: 20 ng of control MO, Tiki1MO or Tiki1MO together with 50 pg of HA-Tiki1 mRNA was injected into two dorsal blastomeres at the 8-cell stage and the phenotype was scored at stage 42. Lateral view (left) and dorso-anterior view (right) are shown. Con, control.
(C) Statistical data of the Tiki1MO phenotype.
20 ng of Tiki1MO were injected into two dorsal blastomeres of 8-cell stage embryos. […] Co-injection of HA*Tiki1 mRNA rescued Tiki1MO phenotypes (FIGS. 3B and 3C). Supporting a role of Tiki1 in Wnt inhibition during head formation, Dkk1 mRNA injection also rescued Tiki1MO anterior deficiency phenotypes (FIG. 3E).

[4] = gene Chd, stage 10.5-11, 20 ng MO
[5] = gene Dkk1, stage 10.5-11, 20 ng MO
[6] = gene Gsc in prechordal plate, stage 13, 20 ng MO
[7] = gene Gsc, stage 10.5-11, 20 ng MO
[8] = gene Lim1, stage 10.5-11, 20 ng MO
[9] = gene Otx2, stage 10.5-11, 20 ng MO
[10] = gene Xnot, stage 10.5-11, 20 ng MO
[11] = gene Xnr3, stage 10.5-11, 20 ng MO

Tiki1 MO: morpholino antisense oligonucleotide against Tiki1, 5′-CCAAATGATTACCATCATAGCTCAG-3′ (SEQ ID NO:33) (all phosphorodiamidate morpholino (PMO))
Whole embryos displaying change in gene expression: Chd Absent, Percentage (%) (Tiki1 [1]; [4]): 0%
Whole embryos displaying change in gene expression: Chd NC (No Change), Percentage (%) (Tiki1 [1]; [4]): 64%
Whole embryos displaying change in gene expression: Chd Reduced, Percentage (%) (Tiki1 [1]; [4]): 36%
Whole embryos displaying change in gene expression: Dkk1 Absent, Percentage (%) (Tiki1 [1]; [5]): 25%
Whole embryos displaying change in gene expression: Dkk1 NC (No Change), Percentage (%) (Tiki1 [1]; [5]): 35%
Whole embryos displaying change in gene expression: Dkk1 Reduced, Percentage (%) (Tiki1 [1]; [5]): 40%
Whole embryos displaying change in gene expression: Gsc st.13 Absent, Percentage (%) (Tiki1 [1]; [6]): 35%
Whole embryos displaying change in gene expression: Gsc st.13 NC (No Change), Percentage (%) (Tiki1 [1]; [6]): 33%
Whole embryos displaying change in gene expression: Gsc st.13 Reduced, Percentage (%) (Tiki1 [1]; [6]): 32%
Whole embryos displaying change in gene expression: Gsc Absent, Percentage (%) (Tiki1 [1]; [7]): 0%
Whole embryos displaying change in gene expression: Gsc NC (No Change), Percentage (%) (Tiki1 [1]; [7]): 34%
Whole embryos displaying change in gene expression: Gsc Reduced, Percentage (%) (Tiki1 [1]; [7]): 66%
Whole embryos displaying change in gene expression: Lim1 Absent, Percentage (%) (Tiki1 [1]; [8]): 28%
Whole embryos displaying change in gene expression: Lim1 NC (No Change), Percentage (%) (Tiki1 [1]; [8]): 18%
Whole embryos displaying change in gene expression: Lim1 Reduced, Percentage (%) (Tiki1 [1]; [8]): 54%
Whole embryos displaying change in gene expression: Otx2 Absent, Percentage (%) (Tiki1 [1]; [9]): 7%
Whole embryos displaying change in gene expression: Otx2 NC (No Change), Percentage (%) (Tiki1 [1]; [9]): 33%
Whole embryos displaying change in gene expression: Otx2 Reduced, Percentage (%) (Tiki1 [1]; [9]): 60%
Whole embryos displaying change in gene expression: Xnot Absent, Percentage (%) (Tiki1 [1]; [10]): 0%
Whole embryos displaying change in gene expression: Xnot NC (No Change), Percentage (%) (Tiki1 [1]; [10]): 87%
Whole embryos displaying change in gene expression: Xnot Reduced, Percentage (%) (Tiki1 [1]; [10]): 13%
Whole embryos displaying change in gene expression: Xnr3 Absent, Percentage (%) (Tiki1 [1]; [11]): 0%
Whole embryos displaying change in gene expression: Xnr3 NC (No Change), Percentage (%) (Tiki1 [1]; [11]): 93%
Whole embryos displaying change in gene expression: Xnr3 Reduced, Percentage (%) (Tiki1 [1]; [11]): 7%
Whole embryos displaying change in Goosecoid expression: Absent, Percentage (%) (Tiki1 [2]; stage 8.5, 20 ng MO): 0%
Whole embryos displaying change in Goosecoid expression: NC (No Change), Percentage (%) (Tiki1 [2]; stage 8.5, 20 ng MO): 100%
Whole embryos displaying change in Goosecoid expression: Reduced, Percentage (%) (Tiki1 [2]; stage 8.5, 20 ng MO): 0%
Whole embryos displaying change in Goosecoid expression: Absent, Percentage (%) (Tiki1 [2]; stage 9.5, 20 ng MO): 13%
Whole embryos displaying change in Goosecoid expression: NC (No Change), Percentage (%) (Tiki1 [2]; stage 9.5, 20 ng MO): 87%
Whole embryos displaying change in Goosecoid expression: Reduced, Percentage (%) (Tiki1 [2]; stage 9.5, 20 ng MO): 0%
Whole embryos displaying change in Goosecoid expression: Absent, Percentage (%) (Tiki1 [2]; stage 10, 20 ng MO): 15%
Whole embryos displaying change in Goosecoid expression: NC (No Change), Percentage (%) (Tiki1 [2]; stage 10, 20 ng MO): 85%
Whole embryos displaying change in Goosecoid expression: Reduced, Percentage (%) (Tiki1 [2]; stage 10, 20 ng MO): 0%
Whole embryos displaying change in Goosecoid expression: Absent, Percentage (%) (Tiki1 [2]; stage 10.5, 20 ng MO): 5%
Whole embryos displaying change in Goosecoid expression: NC (No Change), Percentage (%) (Tiki1 [2]; stage 10.5, 20 ng MO): 80%
Whole embryos displaying change in Goosecoid expression: Reduced, Percentage (%) (Tiki1 [2]; stage 10.5, 20 ng MO): 15%
Whole embryos displaying change in Goosecoid expression: Absent, Percentage (%) (Tiki1 [2]; stage 11, 20 ng MO): 48%
Whole embryos displaying change in Goosecoid expression: NC (No Change), Percentage (%) (Tiki1 [2]; stage 11, 20 ng MO): 27%
Whole embryos displaying change in Goosecoid expression: Reduced, Percentage (%) (Tiki1 [2]; stage 11, 20 ng MO): 25%
Injected embryos that developed anterior defects (Tiki1 [3]): roughly 50%
